Reference: ChEMBL document CHEMBL1129427, “Novel AMPA receptor antagonists: synthesis and structure-activity relationships of 1-hydroxy-7-(1H-imidazol-1-yl)-6-nitro-2,3(1H,4H)- quinoxalinedione and related compounds” (J Med Chem, 1996)

Assays:
[1] = molecular target: Glutamate receptor ionotropic, AMPA (Rattus norvegicus, UniProt P19490+P19491+P19492+P19493)
Description: Binding affinity towards Ionotropic glutamate receptor AMPA was determined in rat whole brain membrane using [3H]AMPA as radioligand

[2] = molecular target: Glutamate receptor ionotropic, NMDA 1 (Rattus norvegicus, UniProt P35439); experiment: Binding affinity towards glycine binding site on NMDA receptor was determined in rat whole brain membrane using strychnine-insensitive [3H]Gly as radioligand; format: cell membranes
[3] = molecular target: Glutamate receptor ionotropic, kainate; experiment: Binding affinity towards Ionotropic glutamate receptor kainate was determined in rat cortical membrane using [3H]KA as radioligand; format: cell membranes
[4] = molecular target: Glutamate NMDA receptor; experiment: Binding affinity towards NMDA receptor was determined in rat whole brain membrane using NMDA-sensitive [3H]Glu as radioligand; format: cell membranes

Q: How did the Ki [1] turn out when `O=c1[nH]c2cc([N+](=O)[O-])c(-n3ccnc3)cc2n(C2CCNC2)c1=O` (configuration not stated) was run?
A: 550 nM

Q: `O=c1[nH]c2cc([N+](=O)[O-])c(-n3cncn3)cc2n(O)c1=O` was tested. Which Ki [1] did it give?
A: 180 nM

Q: How did the Ki [1] turn out when `CC(C)CCn1c(=O)c(=O)[nH]c2cc([N+](=O)[O-])c(-n3ccnc3)cc21` was run?
A: 230 nM

Q: `Cc1cn(-c2cc3c(cc2[N+](=O)[O-])[nH]c(=O)c(=O)n3O)cn1` was tested. Which Ki [1] did it give?
A: 50 nM

Q: Which Ki [1] does the source give for `CCCCCCCCCCn1c(=O)c(=O)[nH]c2cc([N+](=O)[O-])c(-n3ccnc3)cc21` here?
A: 8900 nM

Q: `O=c1[nH]c2cc([N+](=O)[O-])c(-n3ccnc3)cc2n(C2CCCCC2)c1=O` was tested. Which Ki [1] did it give?
A: 110 nM

Q: For `O=c1[nH]c2cc([N+](=O)[O-])c(-n3ccnc3)cc2n(CC2CCCCC2)c1=O`, which Ki [1] is on record?
A: 790 nM

Q: With `O=c1[nH]c2cc([N+](=O)[O-])c(-n3ccnc3)cc2n(C2CN3CCC2CC3)c1=O` (configuration not stated) as the compound, how does the Ki [1] read?
A: 1000 nM

Q: For `O=c1[nH]c2cc([N+](=O)[O-])c(-n3ccnc3)cc2n(CCO)c1=O`, which Ki [1] is on record?
A: 420 nM

Q: With `COn1c(=O)c(=O)[nH]c2cc([N+](=O)[O-])c(-n3ccnc3)cc21` as the compound, how does the Ki [1] read?
A: 380 nM

Q: With `CCOn1c(=O)c(=O)[nH]c2cc([N+](=O)[O-])c(-n3ccnc3)cc21` as the compound, how does the Ki [1] read?
A: 300 nM

Q: With `CN(C)CCn1c(=O)c(=O)[nH]c2cc([N+](=O)[O-])c(-n3ccnc3)cc21` as the compound, how does the Ki [1] read?
A: 840 nM

Q: For `O=c1[nH]c2cc(-n3ccnc3)c([N+](=O)[O-])cc2n(O)c1=O`, which Ki [1] is on record?
A: 440 nM

Q: Which Ki [1] does the source give for `CCn1c(=O)c(=O)[nH]c2cc([N+](=O)[O-])c(-n3ccnc3)cc21` here?
A: 190 nM

Q: For `CCCn1c(=O)c(=O)[nH]c2cc([N+](=O)[O-])c(-n3ccnc3)cc21`, which Ki [1] is on record?
A: 140 nM

Q: How did the Ki [1] turn out when `CCCn1c(=O)c(=O)[nH]c2cc(-n3ccnc3)c([N+](=O)[O-])cc21` was run?
A: 4500 nM

Q: For `O=c1[nH]c2cc([N+](=O)[O-])c(-n3ccnc3)cc2n(O)c1=O`, which Ki [2] is on record?
A: 4200 nM

Q: What about the Ki [3] of the same compound?
A: 630 nM

Q: What about the Ki [4] of the same compound?
A: 12000 nM

Q: And the Ki [1]?
A: 21 nM

Q: Which Ki [1] does the source give for `Cn1c(=O)c(=O)[nH]c2cc([N+](=O)[O-])c(-n3ccnc3)cc21` here?
A: 330 nM

Q: With `O=c1[nH]c2cc(-n3ccnc3)c([N+](=O)[O-])cc2[nH]c1=O` [YM-90K] as the compound, how does the Ki [2] read?
A: 37000 nM
